Experiments:
SCC-1 cells = assay: Flow cytometry cell cycle distribution, synchronized SCC-1 cells; format: cell-based, human; details: 10^-6 M OGF, 14 h
Description: For flow cytometry, cells were synchronized with 0.5 μg/ml nocodazole (Sigma-Aldrich) for 24 h, followed by three washes with complete media. Cells were released from growth arrest by addition of complete media or OGF-supplemented media. Synchronized cells were treated with 10^−6 M OGF for 14 h, harvested with 0.25% trypsin-EDTA (Mediatech, Herndon, Va.) and fixed with 70% ethanol at −20° C. for up to 7 days before DNA analysis. DNA content was obtained by incubating cells in PBS containing propidium iodide (0.1 mg/ml) and RNase A (0.02 mg/ml) for 15 min at 22° C. Fluorescence was measured and analyzed using a BD Biosciences FACScan flow cytometer (San Diego, Calif.) and Modfit Software (Topsham, Me.).

p16 = assay: Western blot of p16 in SCC-4 cells; format: cell-based, human; details: SCC-4 cells, 3 h
Description: The SCC-1 (UM-SCC-1) cell line was obtained from the University of Michigan Cancer Research Laboratory, and CAL-27 and SCC-4 cells were obtained from the American Type Culture Collection (Manassas, Va.). SCC-1 and CAL-27 cells were cultured in DMEM media, whereas SCC-4 cells were grown in 1:1 Hams F-12 DMEM media. All media was supplemented with 10% fetal bovine serum (HyClone, Logan, Utah), 1.2% sodium bicarbonate, and 5000 units/ml penicillin, 5 μg/ml streptomycin and 10 μg/ml neomycin. OGF was purchased from Sigma-Aldrich (St. Louis, Mo.), dissolved in sterile water, and used at a final concentration of 10^−6 M.
Synchronized cells (˜2×10^6) from each treatment were solubilized in 200 μl RIPA buffer (1×PBS, 10 μM IGEPAL, 1 mg/ml SDS, 5 mg/ml deoxycholic acid), containing protease and phosphatase inhibitors (2 μg/ml aprotinin, 3 mg/ml phenylmethyl sulfonyl fluoride (PMSF), 1 mM sodium orthovanidate, 1 μM okadaic acid). Total protein concentrations were measured using the DC protein assay kit (Bio-Rad Laboratories, Hercules, Calif.). Equal amounts of protein (40 μg) were subjected to 10% SDS-PAGE followed by transfer of proteins onto polyvinylidene difluoride (Millipore, Billerica, Mass.) using standard protocols. […]

p21 = assay: Western blot of p21 in PANC-1 cells; format: cell-based, human; details: synchronized PANC-1 cells, 6 hours
Description: Human pancreatic cancer cell lines BxPC-3, PANC-1, and Capan-2 were obtained from the American Type Culture Collection (Manassas, Va.), and cultured in RPMI, Dulbecco's Modified Medium, or McCoy's 5A medium, respectively. All media were supplemented with 10% fetal bovine serum, 1.2% sodium bicarbonate, and 0.25% antibiotics (5000 units/ml penicillin, 5 μg/ml streptomycin and 10 μg/ml neomycin). OGF was purchased from Sigma-Aldrich (St. Louis, Mo.), dissolved in sterile water, and used at a final concentration of 10^−6 M.
Synchronized cells (2×10^6) from each treatment were solubilized in 200 μl RIPA buffer (1×PBS, 10 μM IGEPAL, 1 mg/ml SDS, 5 mg/ml deoxycholic acid), containing protease and phosphatase inhibitors (2 μg/ml aprotinin, 3 mg/ml phenylmethyl sulfonyl fluoride, 1 mM sodium orthovanidate, 1 μM okadaic acid). Total protein concentrations were measured using the DC protein assay kit (Bio-Rad Laboratories, Hercules, Calif.). Equal amounts of protein (40 μg) were subjected to 10% SDS-PAGE followed by transfer of proteins onto polyvinylidene difluoride (Millipore, Billerica, Mass.) using standard protocols.
The p21-targeted siRNAs were obtained from Santa Cruz Biotechnology, and negative control siRNAs were purchased from Ambion (Ambion, Inc., Austin, Tex.). For transfection, 2×10^5 cells per well were seeded in 6-well plates containing 1 ml of media without antibiotics. […]

[1] = system: Rabbit Tenon's Fibroblast cells (RTCFs); assay: Cell counts of Rabbit Tenon's Fibroblast cells; format: cell-based; details: 72 hours
Description: OGF in dosages ranging from 10−4 to 10^−7 M were added to 24-well cultures for 72 hours; sterile water served as control. Drug or vehicle, and media were changed daily. Cell counts of Rabbit Tenon's Fibroblast cells (RTCFs) treated with OGF (10^−7 to 10^−5 M) were 28%, 33%, and 37% smaller than controls (p<0.001).

[Met^5]-enkephalin [OGF]
cells in the G2/M phase (SCC-1 cells): 22.7%
cells in the S phase (SCC-1 cells): 42.7%
percentage of cells in the G0/G1 phase (SCC-1 cells): 34.6%
p16 expression relative to synchronized control cells (p16): induced p16 expression
p21 expression relative to control cells (p21): increased p21 expression
decrease in cell proliferation compared to RTCFs treated with 10^-6 M OGF ([1]; 10^-4 M OGF): 22%
decrease in cell proliferation compared to RTCFs treated with 10^-7 M OGF ([1]; 10^-4 M OGF): 26%
decrease in proliferation compared to controls ([1]; 10^-4 M OGF): 47%
Cell counts smaller than controls ([1]; 10^-5 M OGF): 37%
Cell counts smaller than controls ([1]; 10^-6 M OGF): 33%
Cell counts smaller than controls ([1]; 10^-7 M OGF): 28%
